Laboratory results published in patent US7732470B2, “Compositions and methods for the treatment of renal and cardiovascular disease” (Medical College of Georgia Research Institute, priority 2006, dated 2010).

Tested on: spontaneously hypertensive rats (SHR)
Experiment: Blood pressure in spontaneously hypertensive rats
Type: in vivo, rat
Method: As the 11-nonyloxy-undec-8(Z)-enoic acid derivatives lowered blood pressure in angiontensin hypertension, additional experiments were performed to determine if one of the derivatives could lower blood pressure in another hypertension model system. Male spontaneously hypertensive rats (SHRs) were maintained on a 12-hour light-dark cycle and allowed access to food and water ad libitum. These studies complied with the protocols for animal use outlined by the American Physiological Society and were approved by the institutional animal care and use committee.
Rats from 6 to 12 weeks of age were treated with 11-nonyloxy-undec-8(Z)-enoic acid derivative (TVR-I-276-21)( 2 mg/d i.p.) or vehicle for 8 days. Blood pressure was measured at Day 0, Day 4, and Day 8.
The blood pressure lowering effects of these analogs were analyzed in an established model of hepertension, the spontaneously hypertensive rats (SHR) using telemetry. […] As discussed in the previous example, additional derivatives with improved solubility and resistance to auto-oxidation and metabolism by sEH were designed using the pharmacophoric moiety of EET.
Amidation of the carboxylic group with aspartic acid produced another EET analog 32 (SA-III-161-32). […] Amidation of the carboxylic group with lysine amino acid produced another EET analog 34 (SA-III-172-26).

## CCCCCCCCCOCC/C=C\CCCCCCC(=O)O [11,12-ether EET-8-ZE, 11-nonyloxy-undec-8(Z)-enoic acid, reference compound]
  blood pressure lowering: failed to lower blood pressure

## CCCCCCCCCOCC/C=C\CCCCCCC(=O)NC(CC(=O)O)C(=O)O (centres unmarked) [SA-III-161-32, (Z)-2-(11-(nonyloxy)undec-8-enamido) succinic acid]
Injected at 3 mg/day for 5 days
  blood pressure lowering effect: demonstrated a blood pressure lowering effect
Injected at 3 mg/day for 5 days, telemetry
  MAP Δ change at day 2 of injection: −8±1.3 mmHg

## CCCCCCCCCOCC/C=C\CCCCCCC(=O)NC(CCCCN)C(=O)O (centres unmarked) [SA-III-172-26, (Z)-6-amino-2-(11-(nonyloxy)undec-8-enamido)hexanoic acid]
Injected at 2 mg/day
  blood pressure lowering effect: minimal blood pressure lowering effect

## CCCCCCCCCOCC/C=C\CCCCCCC(=O)OCCOCCOCCO [TVR-I-276-21, (Z)-2-(2-(2-hydroxyethoxy)ethoxy)ethyl 11-(nonyloxy)undec-8-enoate]
2 mg/d i.p. for 8 days, measured Day 0, 4, 8, versus vehicle
  blood pressure: did not increase to the same extent as those that received the vehicle treatment
